Test system: high fat diet-induced obese model
Assay: Anti-obesity effect in diet-induced obese (DIO) model, body weight change
Conditions: 100 mg/kg/day oral
Protocol: For the oral administration, the substances were dissolved in a 5% aqueous solution of methyl cellulose (Sigma Co., USA). 7-week-old male C57BL/6J mice were prepared for test, with 10 heads per group. After an accommodation period of 1 week, the mice were kept in individual cages and maintained with 12/12-hr light-dark cycles (lighting from 7 am to 5 pm). […] The corresponding substance was orally administered once a day at regular hours (10 am) for 8 weeks. Body weight was measured once a week (11 am). After 8 weeks of administration, the body weight of the test groups and the control group was analyzed.

In the case of `COc1cc(C[C@H](C)[C@H](C)Cc2ccc3c(c2)OCO3)ccc1O` [Macelignan, macelignan], the “Body weight change (g) after oral administration, 14 days” value (14 days) is reported as 4.00 g, the “Body weight change (g) after oral administration, 21 days” value (21 days) is reported as 5.31 g and the “Body weight change (g) after oral administration, 28 days” value (28 days) is reported as 6.52 g. For the same compound, the “Body weight change (g) after oral administration, 35 days” value (35 days) was 8.91 g, the “Body weight change (g) after oral administration, 42 days” value (42 days) was 9.70 g and the “Body weight change (g) after oral administration, 49 days” value (49 days) was 10.63 g.

— patent publication US20120083525A1, “COMPOSITION FOR PREVENTING OR TREATING OBESITY-RELATED DISEASES MEDIATED BY THE ACTIVATION OF AMPK AND INCLUDING 2,5-BIS-ARYL-3,4-DIMETHYLTETRAHYDROFURAN LIGNANS AS ACTIVE INGREDIENTS” (Amorepacific Corporation, priority 2009, published 2012)
